Results: patent US9938271B2, “Inhibitors of human immunodeficiency virus replication” (VIIV HEALTHCARE UK (NO. 5) LIMITED, priority 2014, dated 2018)

The molecules below were run on NL-RLuc virus (recombinant HIV NL4-3 with Renilla Luciferase gene) in MT-2 cells (assay: Inhibition of HIV replication (NL-RLuc luciferase reporter virus in MT-2 cells)). Settings: MT2, 120 h, MT-2 cells infected with NL-RLuc virus, 5 days of incubation, luciferase readout, 10% FBS.
Type: cell-based
Text: Inhibition of HIV Replication:
A recombinant NL-RLuc proviral clone was constructed in which a section of the nef gene from NL4-3 was replaced with the Renilla Luciferase gene. This virus is fully infectious and can undergo multiple cycles of replication in cell culture. In addition, the luciferous reporter provides a simple and easy method for quantitating the extent of virus growth and consequently, the antiviral activity of test compounds. The plasmid pNLRLuc contains the proviral NL-Rluc DNA cloned into pUC 18 at the PvuII site. The NL-RLuc virus was prepared by transfection of 293T cells with the plasmid pNLRLuc. Transfections were performed using the LipofectAMINE PLUS kit from Invitrogen (Carlsbad, Calif.) according to the manufacturer and the virus generated was titered in MT-2 cells. For susceptibility analyses, the titrated virus was used to infect MT-2 cells in the presence of compound, and after 5 days of incubation, cells were processed and quantitated for virus growth by the amount of expressed luciferase. Assay media was RPMI 1640 supplemented with 10% heat inactivated fetal bovine serum (FBS), 100 units/ml penicillin G/100 units/ml streptomycin, 10 mM HEPES buffer pH 7.55 and 2 mM L-glutamine. The results from at least 2 experiments were used to calculate the EC50 values. Luciferase was quantitated using the Dual Luciferase kit from Promega (Madison, Wis.). Susceptibility of viruses to compounds was determined by incubation in the presence of serial dilutions of the compound. The 50% effective concentration (EC50) was calculated by using the exponential form of the median effect equation where (Fa)=1/[1+(ED50/drug conc.)^m] (Johnson V A, Byington R T. Infectivity Assay. In Techniques in HIV Research. ed. Aldovini A, Walker B D. 71-76. New York: Stockton Press. 1990). Activity equal to A refers to a compound having an EC50≤100 nM, while B and C denote compounds having an EC50 between 100 nM and 1 uM (B) or >1 uM (C).

| SMILES | EC50 [µM] |
| --- | --- |
| Cc1cn2c(C(C)(C)C)c3nc2c(c1[C@H](OC(C)(C)C)C(=O)O)N1CCC(C)(CC1)OCCCC[C@H](C)Oc1cc(F)ccc1-c1cccc-3c1 [Example 10, (2S)-2-(tert-Butoxy)-2-[(22S)-34-tert-butyl-18-fluoro-4,22,28-trimethyl-21,27-dioxa-1,6,8-triazahexacyclo[26.2.2.1^6,9.1^10,14.0^2,7.0^15,20]tetratriaconta-2,4,7,9 (34),10(33),11,13,15,17,19-decaen-3-yl]acetic acid] | 0.148 |
| Cc1cn2cc3nc2c(c1[C@H](OC(C)(C)C)C(=O)O)N1CCC(C)(CC1)OCCCC[C@H](C)Oc1cc(F)ccc1-c1cccc-3c1 [Example 9, (2S)-2-(tert-Butoxy)-2-[(22S)-18-fluoro-4,22,28-trimethyl-21,27-dioxa-1,6,8-triazahexacyclo[26.2.2.1^6,9.1^10,14.0^2,7.0^15,20]tetratriaconta-2,4,7,9(34),10(33),11,13,15,17,19-decaen-3-yl]acetic acid] | 0.036 |
| Cc1cn2cc(-c3cccc(-c4ccccc4F)c3)nc2c(-c2ccc3c(c2)CCCO3)c1[C@H](OC(C)(C)C)C(=O)O [Example 7, (S)-2-(tert-Butoxy)-2-(8-(chroman-6-yl)-2-(2′-fluoro[1,1′-biphenyl]-3-yl)-6-methylimidazo[1,2-a]pyridin-7-yl)acetic acid] | 0.019 |
| Cc1cn2cc(-c3cccc(-c4ccccc4F)c3)nc2c(-c2cc(F)c3c(c2C)CCCO3)c1[C@H](OC(C)(C)C)C(=O)O [Example 3, (2S)-2-(tert-Butoxy)-2-(8-(8-fluoro-5-methylchroman-6-yl)-2-(2′-fluoro-[1,1′-biphenyl]-3-yl)-6-methylimidazo[1,2-a]pyridin-7-yl)acetic acid] | 0.011 |
| Cc1cn2cc(-c3cccc(-c4ccccc4F)c3)nc2c(-c2ccccc2F)c1[C@H](OC(C)(C)C)C(=O)O [Example 4, (2S)-2-(tert-Butoxy)-2-(2-(2′-fluoro-[1,1′-biphenyl]-3-yl)-8-(2-fluorophenyl)-6-methylimidazo[1,2-a]pyridin-7-yl)acetic acid] | 0.265 |
| Cc1cn2cc(-c3cccc(-c4ccc(F)c(F)c4F)c3)nc2c(-c2ccc3c(c2)CCCO3)c1[C@H](OC(C)(C)C)C(=O)O [Example 8, (S)-2-(tert-Butoxy)-2-(8-(chroman-6-yl)-6-methyl-2-(2′,3′,4′-trifluoro-[1,1′-biphenyl]-3-yl)imidazo[1,2-a]pyridin-7-yl)acetic acid] | 0.01 |

Same assay, conditions: {}

| SMILES | EC50 [µM] |
| --- | --- |
| Cc1cn2cc(-c3cccc(-c4ccc(F)cc4)c3)nc2c(-c2cc(F)c3c(c2C)CCCO3)c1[C@H](OC(C)(C)C)C(=O)O (single isomer, unassigned) [Example 2] | 0.187 |
| Cc1cn2cc(-c3cccc(-c4ccc(F)cc4)c3)nc2c(-c2cc(F)c3c(c2C)CCCO3)c1[C@H](OC(C)(C)C)C(=O)O (single isomer, unassigned) [Example 1] | 0.016 |
| Cc1ccccc1-c1cccc(-c2cn3cc(C)c([C@H](OC(C)(C)C)C(=O)O)c(-c4cc(F)c5c(c4C)CCCO5)c3n2)c1 (single isomer, unassigned) [Example 6] | 0.56 |
| Cc1ccccc1-c1cccc(-c2cn3cc(C)c([C@H](OC(C)(C)C)C(=O)O)c(-c4cc(F)c5c(c4C)CCCO5)c3n2)c1 (single isomer, unassigned) [Example 5] | 0.034 |
